Results reported in ChEMBL document CHEMBL4425155, “Synthesis and anti-HBV activity of α-stereoisomer of aristeromycin based analogs” (Bioorg Med Chem Lett, 2016).

Key:
Hepatitis B virus = assay: Antiviral activity against HBV infected in human HepG2.2.15.7 cells assessed as inhibition of viral DNA level after 9 days by real time PCR method; format: functional, organism-based; conditions: HepG2.2.15.7, 216 h
[1] = Cytotoxicity against human HepG2.2.15.7 cells assessed as reduction in cell viability after 9 days by tetrazolium dye based method

Compound	EC50 (Hepatitis B virus)	CC50 at 216 h [1]
Cc1nc(N)c2c(Br)nn([C@@H]3C[C@@H](CO)[C@@H](O)[C@H]3O)c2n1	> 100 µM	> 100 µM
Cc1ncnc2c1c(Br)cn2[C@@H]1C[C@@H](CO)[C@@H](O)[C@H]1O	6.6 µM	> 100 µM
Nc1ccn([C@@H]2CS[C@H](CO)O2)c(=O)n1 [LAMIVUDINE]	0.03 µM	> 10 µM
